Data as given in patent publication US5698522A, “6-position modified decapeptide LHRH antagonists” (Abbott Laboratories, priority 1995, dated 1997).
Where a SMILES comes first, the peptide text is derived from it. Side-chain parts run from the residue outwards. [ ]: non-standard residue; d: D form. The star is where a group is joined. Shikimoyl = O=C(C1=C[C@@H](O)[C@@H](O)[C@H](O)C1)*; Quinoline3carbonyl = O=C(c1cnc2ccccc2c1)*; Quinoline4carbonyl = O=C(c1ccnc2ccccc12)*; dPhe(4-Cl) = N[C@H](Cc1ccc(Cl)cc1)C(=O)O; d2Nal = N[C@H](Cc1ccc2ccccc2c1)C(=O)O; NMeY = CN[C@@H](Cc1ccc(O)cc1)C(=O)O; Pyrazinecarbonyl = O=C(c1cnccn1)*; d3Pal = N[C@H](Cc1cccnc1)C(=O)O; Nicotinoyl = O=C(c1cccnc1)*; dOrn = NCCC[C@@H](N)C(=O)O; X2 = O=C(c1ccoc1)*; βAla = NCCC(=O)O

target: T1, LHRH receptor (Rattus norvegicus, UniProt P30969); experiment: in vitro LHRH antagonist potency (pA2) against the agonist leuprolide; type: cell-based; conditions: negative logarithm of the antagonist concentration which shifts the response curve produced by the agonist leuprolide to two-fold higher concentration
T1 construct: endogenous in cells
T1 sequence (P30969 1-327): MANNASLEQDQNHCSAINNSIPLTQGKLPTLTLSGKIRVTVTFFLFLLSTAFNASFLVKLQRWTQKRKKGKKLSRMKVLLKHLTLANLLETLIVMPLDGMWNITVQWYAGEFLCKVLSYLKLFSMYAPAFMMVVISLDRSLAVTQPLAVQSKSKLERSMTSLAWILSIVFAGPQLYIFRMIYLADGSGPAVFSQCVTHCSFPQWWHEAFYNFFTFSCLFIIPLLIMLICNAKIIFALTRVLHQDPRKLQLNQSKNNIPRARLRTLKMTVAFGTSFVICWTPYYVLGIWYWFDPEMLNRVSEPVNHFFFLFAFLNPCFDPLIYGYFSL
Outline: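 Functional antagonism against the agonist leuprolide. pA2 is the negative log of antagonist concentration that shifts the leuprolide response curve to twofold higher concentration.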

SMILES | Kb [nM]
CC(=O)N[C@H](Cc1ccc2ccccc2c1)C(=O)N[C@H](Cc1ccc(Cl)cc1)C(=O)N[C@H](Cc1cccnc1)C(=O)N[C@@H](CO)C(=O)N(C)[C@@H](Cc1ccc(O)cc1)C(=O)N[C@H](CCCCNC(=O)CCNC(=O)C1=C[C@@H](O)[C@@H](O)[C@H](O)C1)C(=O)N[C@@H](CC(C)C)C(=O)N[C@@H](CCCNC(=N)N)C(=O)N1CCC[C@H]1C(=O)N[C@H](C)C(N)=O [Example 48g, NAc-D2Nal^1 -D4ClPhe^2 -D3Pal^3 -Ser^4 -NMeTyr^5 -DLys(N-epsilon-Beta-alanyl-Shikimyl)^6 -Leu^7 -Arg^8 -Pro^9 -DAla^10 NH2] (Ac-[d2Nal][dPhe(4-Cl)][d3Pal]S[NMeY][dK]([βAla-Shikimoyl])LRP[dA]-NH2) | 0.0126
CC(=O)N[C@H](Cc1ccc2ccccc2c1)C(=O)N[C@H](Cc1ccc(Cl)cc1)C(=O)N[C@H](Cc1cccnc1)C(=O)N[C@@H](CO)C(=O)N(C)[C@@H](Cc1ccc(O)cc1)C(=O)N[C@H](CCCCNC(=O)[C@@H](Cc1c[nH]cn1)NC(=O)C1=C[C@@H](O)[C@@H](O)[C@H](O)C1)C(=O)N[C@@H](CC(C)C)C(=O)N[C@@H](CCCNC(=N)N)C(=O)N1CCC[C@H]1C(=O)N[C@H](C)C(N)=O [Example 48h, NAc-D2Nal^1 -D4ClPhe^2 -D3Pal^3 -Ser^4 -NMeTyr^5 -DLys(N-epsilon-D-His-Shikimyl)^6 -Leu^7 -Arg^8 -Pro^9 -DAla^10 NH2] (Ac-[d2Nal][dPhe(4-Cl)][d3Pal]S[NMeY][dK]([dH-Shikimoyl])LRP[dA]-NH2) | 0.038
CC(=O)N[C@H](Cc1ccc2ccccc2c1)C(=O)N[C@H](Cc1ccc(Cl)cc1)C(=O)N[C@H](Cc1cccnc1)C(=O)N[C@@H](CO)C(=O)N(C)[C@@H](Cc1ccc(O)cc1)C(=O)N[C@H](CCCCNC(=O)[C@@H](Cc1cccnc1)NC(=O)C1=C[C@@H](O)[C@@H](O)[C@H](O)C1)C(=O)N[C@@H](CC(C)C)C(=O)N[C@@H](CCCNC(=N)N)C(=O)N1CCC[C@H]1C(=O)N[C@H](C)C(N)=O [Example 48i, NAc-D2Nal^1 -D4ClPhe^2 -D3Pal^3 -Ser^4 -NMeTyr^5 -DLys(N-epsilon-D-3Pal-Shikimyl)^6 -Leu^7 -Arg^8 -Pro^9 -DAla^10 NH2] (Ac-[d2Nal][dPhe(4-Cl)][d3Pal]S[NMeY][dK]([d3Pal-Shikimoyl])LRP[dA]-NH2) | 0.0363
CC(=O)N[C@H](Cc1ccc2ccccc2c1)C(=O)N[C@H](Cc1ccc(Cl)cc1)C(=O)N[C@H](Cc1cccnc1)C(=O)N[C@@H](CO)C(=O)N(C)[C@@H](Cc1ccc(O)cc1)C(=O)N[C@H](CCCCNC(=O)[C@@H](CO)NC(=O)CNC(=O)C1=C[C@@H](O)[C@@H](O)[C@H](O)C1)C(=O)N[C@@H](CC(C)C)C(=O)N[C@@H](CCCNC(=N)N)C(=O)N1CCC[C@H]1C(=O)N[C@H](C)C(N)=O [Example 48j, NAc-D2Nal^1 -D4ClPhe^2 -D3Pal^3 -Ser^4 -NMeTyr^5 -DLys(N-epsilon-D-Ser-Gly-Shikimyl)^6 -Leu^7 -Arg^8 -Pro^9 -DAla^10 NH2] (Ac-[d2Nal][dPhe(4-Cl)][d3Pal]S[NMeY][dK]([dS-Gly-Shikimoyl])LRP[dA]-NH2) | 0.017
CC(=O)N[C@H](Cc1ccc2ccccc2c1)C(=O)N[C@H](Cc1ccc(Cl)cc1)C(=O)N[C@H](Cc1cccnc1)C(=O)N[C@@H](CO)C(=O)N(C)[C@@H](Cc1ccc(O)cc1)C(=O)N[C@H](CCCCNC(=O)[C@@H](CO)NC(=O)CNC(=O)c1cccnc1)C(=O)N[C@@H](CC(C)C)C(=O)N[C@@H](CCCNC(=N)N)C(=O)N1CCC[C@H]1C(=O)N[C@H](C)C(N)=O [Example 48k, NAc-D2Nal^1 -D4ClPhe^2 -D3Pal^3 -Ser^4 -NMeTyr^5 -DLys(N-epsilon-D-Ser-Gly-Nicotinyl)^6 -Leu^7 -Arg^8 -Pro^9 -DAla^10 NH2] (Ac-[d2Nal][dPhe(4-Cl)][d3Pal]S[NMeY][dK]([dS-Gly-Nicotinoyl])LRP[dA]-NH2) | 0.017
CC(=O)N[C@H](Cc1ccc2ccccc2c1)C(=O)N[C@H](Cc1ccc(Cl)cc1)C(=O)N[C@H](Cc1cccnc1)C(=O)N[C@@H](CO)C(=O)N(C)[C@@H](Cc1ccc(O)cc1)C(=O)N[C@H](CCCNC(=O)CNC(=O)c1cccnc1)C(=O)N[C@@H](CC(C)C)C(=O)N[C@@H](CCCNC(=N)N)C(=O)N1CCC[C@H]1C(=O)N[C@H](C)C(N)=O [Example 49a, NAc-D2Nal^1 -D4ClPhe^2 -D3Pal^3 -Ser^4 -NMeTyr^5 -DOrn(N-epsilon-Gly-Nicotinyl)^6 -Leu^7 -Arg^8 -Pro^9 -DAla^10 NH2] (Ac-[d2Nal][dPhe(4-Cl)][d3Pal]S[NMeY][dOrn]([Gly-Nicotinoyl])LRP[dA]-NH2) | 0.0155
CC(=O)N[C@H](Cc1ccc2ccccc2c1)C(=O)N[C@H](Cc1ccc(Cl)cc1)C(=O)N[C@H](Cc1cccnc1)C(=O)N[C@@H](CO)C(=O)N(C)[C@@H](Cc1ccc(O)cc1)C(=O)N[C@H](CCCNC(=O)[C@@H](CO)NC(=O)c1cccnc1)C(=O)N[C@@H](CC(C)C)C(=O)N[C@@H](CCCNC(=N)N)C(=O)N1CCC[C@H]1C(=O)N[C@H](C)C(N)=O [Example 49b, NAc-D2Nal^1 -D4ClPhe^2 -D3Pal^3 -Ser^4 -NMeTyr^5 -DOrn(N-epsilon-DSer-Nicotinyl)^6 -Leu^7 -Arg^8 -Pro^9 -DAla^10 NH2] (Ac-[d2Nal][dPhe(4-Cl)][d3Pal]S[NMeY][dOrn]([dS-Nicotinoyl])LRP[dA]-NH2) | 0.0155
CC(=O)N[C@H](Cc1ccc2ccccc2c1)C(=O)N[C@H](Cc1ccc(Cl)cc1)C(=O)N[C@H](Cc1cccnc1)C(=O)N[C@@H](CO)C(=O)N(C)[C@@H](Cc1ccc(O)cc1)C(=O)N[C@H](CCCNC(=O)CNC(=O)C1=C[C@@H](O)[C@@H](O)[C@H](O)C1)C(=O)N[C@@H](CC(C)C)C(=O)N[C@@H](CCCNC(=N)N)C(=O)N1CCC[C@H]1C(=O)N[C@H](C)C(N)=O [Example 49c, NAc-D2Nal^1 -D4ClPhe^2 -D3Pal^3 -Ser^4 -NMeTyr^5 -DOrn(N-epsilon-Gly-Shikimyl)^6 -Leu^7 -Arg^8 -Pro^9 -DAla^10 NH2] (Ac-[d2Nal][dPhe(4-Cl)][d3Pal]S[NMeY][dOrn]([Gly-Shikimoyl])LRP[dA]-NH2) | 0.0427
CC(=O)N[C@H](Cc1ccc2ccccc2c1)C(=O)N[C@H](Cc1ccc(Cl)cc1)C(=O)N[C@H](Cc1cccnc1)C(=O)N[C@@H](CO)C(=O)N(C)[C@@H](Cc1ccc(O)cc1)C(=O)N[C@H](CCCNC(=O)[C@@H](CO)NC(=O)C1=C[C@@H](O)[C@@H](O)[C@H](O)C1)C(=O)N[C@@H](CC(C)C)C(=O)N[C@@H](CCCNC(=N)N)C(=O)N1CCC[C@H]1C(=O)N[C@H](C)C(N)=O [Example 49d, NAc-D2Nal^1 -D4ClPhe^2 -D3Pal^3 -Ser^4 -NMeTyr^5 -DOrn(N-epsilon-DSer-Shikimyl)^6 -Leu^7 -Arg^8 -Pro^9 -DAla^10 NH2] (Ac-[d2Nal][dPhe(4-Cl)][d3Pal]S[NMeY][dOrn]([dS-Shikimoyl])LRP[dA]-NH2) | 0.00166
CC(=O)N[C@H](Cc1ccc2ccccc2c1)C(=O)N[C@H](Cc1ccc(Cl)cc1)C(=O)N[C@H](Cc1cccnc1)C(=O)N[C@@H](CO)C(=O)N(C)[C@@H](Cc1ccc(O)cc1)C(=O)N[C@H](CCCCNC(=O)[C@@H](CO)NC(=O)c1cnc2ccccc2c1)C(=O)N[C@@H](CC(C)C)C(=O)N[C@@H](CCCNC(=N)N)C(=O)N1CCC[C@H]1C(=O)N[C@H](C)C(N)=O [Example 50d, NAc-D2Nal^1 -D4ClPhe^2 -D3Pal^3 -Ser^4 -NMeTyr^5 -DLys(N-epsilon-DSer-3-Quinolinyl)^6 -Leu^7 -Arg^8 -Pro^9 -DAla^10 NH2] (Ac-[d2Nal][dPhe(4-Cl)][d3Pal]S[NMeY][dK]([dS-Quinoline3carbonyl])LRP[dA]-NH2) | 0.0479
CC(=O)N[C@H](Cc1ccc2ccccc2c1)C(=O)N[C@H](Cc1ccc(Cl)cc1)C(=O)N[C@H](Cc1cccnc1)C(=O)N[C@@H](CO)C(=O)N(C)[C@@H](Cc1ccc(O)cc1)C(=O)N[C@H](CCCCNC(=O)[C@@H](CO)NC(=O)c1ccnc2ccccc12)C(=O)N[C@@H](CC(C)C)C(=O)N[C@@H](CCCNC(=N)N)C(=O)N1CCC[C@H]1C(=O)N[C@H](C)C(N)=O [Example 50e, NAc-D2Nal^1 -D4ClPhe^2 -D3Pal^3 -Ser^4 -NMeTyr^5 -DLys(N-epsilon-DSer-4-Quinolinyl)^6 -Leu^7 -Arg^8 -Pro^9 -DAla^10 NH2] (Ac-[d2Nal][dPhe(4-Cl)][d3Pal]S[NMeY][dK]([dS-Quinoline4carbonyl])LRP[dA]-NH2) | 0.0288
CC(=O)N[C@H](Cc1ccc2ccccc2c1)C(=O)N[C@H](Cc1ccc(Cl)cc1)C(=O)N[C@H](Cc1cccnc1)C(=O)N[C@@H](CO)C(=O)N(C)[C@@H](Cc1ccc(O)cc1)C(=O)N[C@H](CCCCNC(=O)[C@@H](CO)NC(=O)c1cnccn1)C(=O)N[C@@H](CC(C)C)C(=O)N[C@@H](CCCNC(=N)N)C(=O)N1CCC[C@H]1C(=O)N[C@H](C)C(N)=O [Example 50g, NAc-D2Nal^1 -D4ClPhe^2 -D3Pal^3 -Ser^4 -NMeTyr^5 -DLys(N-epsilon-DSer-2-Pyrazinecarbonyl)^6 -Leu^7 -Arg^8 -Pro^9 -DAla^10 NH2] (Ac-[d2Nal][dPhe(4-Cl)][d3Pal]S[NMeY][dK]([dS-Pyrazinecarbonyl])LRP[dA]-NH2) | 0.0126
CC(=O)N[C@H](Cc1ccc2ccccc2c1)C(=O)N[C@H](Cc1ccc(Cl)cc1)C(=O)N[C@H](Cc1cccnc1)C(=O)N[C@@H](CO)C(=O)N(C)[C@@H](Cc1ccc(O)cc1)C(=O)N[C@H](CCCCNC(=O)CNC(=O)c1ccoc1)C(=O)N[C@@H](CC(C)C)C(=O)N[C@@H](CCCNC(=N)N)C(=O)N1CCC[C@H]1C(=O)N[C@H](C)C(N)=O [Example 51a, NAc-D2Nal^1 -D4ClPhe^2 -D3Pal^3 -Ser^4 -NMeTyr^5 -DLys(N-epsilon-Gly-3-Furoyl)^6 -Leu^7 -Arg^8 -Pro^9 -DAla^1 -NH2] (Ac-[d2Nal][dPhe(4-Cl)][d3Pal]S[NMeY][dK]([Gly-X2])LRP[dA]-NH2) | 0.011
